Data: patent US5811558A, “Process for the resolution of etodolac using glucamine derivatives” (priority 1994, dated 1998)
Structures can show the parent of a compound that is named as a salt.

What was measured:
[1] = open randomised two way crossover pharmacokinetic study in healthy male volunteers, single oral dose; format: in vivo, human (healthy male volunteers); settings: for half-life: t1/2
Experimental: (§1) An open randomised two way crossover study was conducted on a group of 13 healthy male volunteers to investigate the pharmacokinetics of the meglumine salt of (S)-etodolac and racemic etodolac (Lodine®); 11 volunteers received both treatments. Doses used were […] of the meglumine salt (equivalent to 100 mg of the free acid) and 200 mg of racemic etodolac. Blood samples were taken regularly.
The results of the pharmacokinetic study are shown in Table 1 and in FIGS. 1 and 2 below.
FIG. 1 is a graph of plasma concentration (μg/ml) of the (S)enantiomer for all volunteers receiving a single oral dose of 200 mg of racemic etodolac.
FIG. 2 is a graph of plasma concentration (μ/ml) of the (S) enantiomer for all volunteers receiving a single oral dose of 168 mg of the meglumine salt of (S)-etodolac (100 mg free acid equivalent).

[2] = free acid, Lee et al, J. Pharm. Sci. (1988); cited from earlier work
[3] = design: species or system human (healthy male volunteers); settings: human, in vivo
Experimental: as §1
Etodolac had no affect on vital signs, ECGs, physical examinations or on any clinical laboratory assessments, including serum biochemistry, haematology and urinalysis, when administered in either form.

| SMILES | t1/2 comparison in words ([1]; human, in vivo) | half-life ([1]; human, in vivo, po) | tmax ([1]; human, in vivo, po, tmax) | stability on heating under acidic conditions [2] | effect on vital signs, ECGs, physical examinations or clinical laboratory assessments (serum biochemistry, haematology, urinalysis) [3] | tmax ([1]; human, in vivo, po) | plasma concentrations of (R)-etodolac relative to (S)-etodolac ([1]; human, in vivo, po) | peak plasma concentrations in words ([1]; human, in vivo) | appearance in plasma in words ([1]; meglumine salt dosed orally) |
| --- | --- | --- | --- | --- | --- | --- | --- | --- | --- |
| CCc1cccc2c3c([nH]c12)C(CC)(CC(=O)O)OCC3 (racemic) [racemic etodolac] | substantially eguivalent | 428 min | 1.67 h | leads to its decomposition | no affect |  |  |  |  |
| CCc1cccc2c3c([nH]c12)[C@](CC)(CC(=O)O)OCC3 [(S)-etodolac] | markedly lower | ~120 min |  |  |  | 1.23 h |  |  |  |
| CCc1cccc2c3c([nH]c12)[C@@](CC)(CC(=O)O)OCC3 [(R)-etodolac] | substantially eguivalent | ~420 min | 1.73 h |  |  |  | about 10 times higher |  |  |
| CCc1cccc2c3c([nH]c12)[C@](CC)(CC(=O)O)OCC3 [Meglumine salt of (S)-etodolac] |  |  |  |  |  | 0.333 h |  | significantly higher | appears in the plasma very rapidly |
